Assay results taken from patent publication US20260207704A1, “STAPLED PEPTIDES AND METHODS THEREOF” (priority 2022, published 2026).
Like-named read-outs stand apart in the source and are kept apart here. *1 amine or outer side, *2 acyl side, *3 side chain or, on linkers, in order; H or OH if unused. Bridges are numbered along the chain shown (N, C = ends). Primed or numbered codes have the meaning given here. [ ]: non-standard residue; d: D form. PyrS2(6) = (S)-3-amino-1-((pent-4-en-1-yloxy)carbonyl)pyrrolidine-3-carboxylic acid, stapled with another olefin-containing amino acid residue through the olefin group, O=C(OCCCC=[*:3])N1CC[C@@](N[*:1])(C(=O)[*:2])C1; B5(4) = 2-amino-2-(pent-4-en-1-yl)hept-6-enoic acid, stapled through each of its two olefin groups with other olefin-containing amino acid residues, O=C(C(CCCC=[*:3])(CCCC=[*:4])N[*:1])[*:2]; PyrS2″ = (S)-3-amino-1-((pent-4-en-1-yloxy)carbonyl)pyrrolidine-3-carboxylic acid (olefin stapling residue), C=CCCCOC(=O)N1CC[C@@](N[*:1])(C(=O)[*:2])C1; PyrS2 = (S)-3-amino-1-((pent-4-en-1-yloxy)carbonyl)pyrrolidine-3-carboxylic acid, olefin staple residue, C=CCCCOC(=O)N1CC[C@@](N[*:1])(C(=O)[*:2])C1; PyrS2(5) = (S)-3-amino-1-((pent-4-en-1-yloxy)carbonyl)pyrrolidine-3-carboxylic acid, C=CCCCOC(=O)N1CC[C@@](N[*:1])(C(=O)[*:2])C1; B5″ = 2-amino-2-(pent-4-en-1-yl)hept-6-enoic acid (bis-olefin stapling residue), C=CCCCC(CCCC=C)(N[*:1])C(=O)[*:2]; B5(5) = 2-amino-2-(pent-4-en-1-yl)hept-6-enoic acid (two olefin arms), C=CCCCC(CCCC=C)(N[*:1])C(=O)[*:2]; Phe(3-COOH) = N[C@@H](Cc1cccc(C(=O)O)c1)C(=O)O; 2F3MeF = Cc1cccc(C[C@H](N[*:1])C(=O)[*:2])c1F; Bta = N[C@@H](Cc1csc2ccccc12)C(=O)O; αAllylPro = C=CC[C@@]1(C(=O)O)CCCN1; tBuAla = CC(C)(C)C[C@H](N)C(=O)O; 3Thi = N[C@@H](Cc1ccsc1)C(=O)O; TriAzLys(3) = not defined here; hSer = N[C@@H](CCO)C(=O)O; 2F3MeF(4) = Phe analogue; AsnR = not defined here; GlnR = not defined here; sAla = not defined here; B5 = not defined here; Aib = CC(C)(N)C(=O)O

B1: I-28 (peptide)
peptide: Ac-[αAllylPro]D[tBuAla][B5(4)]D[Phe(3-COOH)][sAla]AF[TriAzLys(3)][PyrS2(6)][2F3MeF(4)][Bta]Q-NH2
modifications: triazole 7-10; not fully specified (bridges); printed as Ac-PL3-Asp-Npg-B5-Asp-3COOHF-sAla*3-Ala-Phe-TriAzLys*3-PyrS2-2F3MeF-BztA-Gln-NH2; reading uncertain
B2: I-147 (peptide)
peptide: Ac-[αAllylPro][hSer][tBuAla][B5″]D[Phe(3-COOH)][Aib]AFK[PyrS2″][2F3MeF][Bta][GlnR]LS-NH2
modifications: bridge 10-14; reading uncertain; also: PL3-B5 and PyrS2 links not placed, printed as Ac-PL3-Hse-Npg-B5-Asp-3COOHF-Aib-Ala-Phe-Lys*3-PyrS2-2F3MeF-BztA-GlnR*3-Leu-Ser-NH2
B3: I-133 (peptide)
peptide: Ac-[αAllylPro]D[tBuAla][B5]D[Phe(3-COOH)][GlnR]AFL[PyrS2][2F3MeF][Bta][GlnR](39N2spiroundecane)A-NH2
modifications: staple 1-4, 4-11 (inferred); not fully specified; printed as Ac-PL3-Asp-Npg-B5-Asp-3COOHF-GlnR-Ala-Phe-Leu-PyrS2-2F3MeF-BztA-[39N2spiroundecane]GlnR-Ala-NH2; reading uncertain; also: staple C=C reduced to CH2-CH2
B4: I-44 (peptide)
peptide: Ac-[αAllylPro]D[tBuAla][B5(5)]D[Phe(3-COOH)]AAF[AsnR][PyrS2(5)][3Thi][Bta]KA-NH2
modifications: bridge 10-14; reading uncertain; also: PL3/B5/PyrS2 staple links not placed, printed as Ac-PL3-Asp-Npg-B5-Asp-3COOHF-Ala-Ala-Phe-AsnR*3-PyrS2-3Thi-BztA-Lys*3-Ala-NH2
B5: I-35 (peptide)
peptide: Ac-[αAllylPro]D[tBuAla][B5(5)]D[Phe(3-COOH)]AAF[AsnR][PyrS2(5)][3Thi][Bta]K-NH2
modifications: bridge 10-14; not fully specified (bridges); printed as Ac-PL3-Asp-Npg-B5-Asp-3COOHF-Ala-Ala-Phe-AsnR*3-PyrS2-3Thi-BztA-Lys*3-NH2; reading uncertain
B6: I-26 (peptide)
peptide: Ac-[αAllylPro]D[tBuAla][B5(4)]DD[sAla]AF[TriAzLys(3)][PyrS2(6)][3Thi][Bta]Q-NH2
modifications: triazole 7-10; not fully specified (bridges); printed as Ac-PL3-Asp-Npg-B5-Asp-Asp-sAla*3-Ala-Phe-TriAzLys*3-PyrS2-3Thi-BztA-Gln-NH2; reading uncertain

Experiments:
COLO320DM cells = test: COLO320DM proliferation assay; type: cell-based, human; conditions: read-out: COLO320DM Proliferation Abs IC50
Protocol: (§1) Various technologies can be utilized to assess technologies of the present disclosure. For example, in some embodiments, solubility, LogD, interactions with targets, etc. of various agents such as stapled peptides were assessed using technologies described in WO 2022/261257 (e.g., those in its Examples). In some embodiments, solubility, shake flask LogD, and binding to beta-catenin were assessed. In some embodiments, an assay for assessing interactions, e.g., with beta-catenin, was fluorescence polarization as described in WO 2022/261257. In some embodiments, an assay was Nano-BRET target engagement assay that assessed beta-catenin/TCF4 engagement as described in WO 2022/261257. In some embodiments, an assay was a reporter assay as reported in Example 4 of WO 2022/261257. In some embodiments, an assay was a COLO320DM proliferation assay as reported in Example 4 of WO 2022/261257.
Among other things, provided technologies can inhibit proliferation of various cells including various cancer cells. In some embodiments, provided technologies modulate WNT specific transcription. In some embodiments, provided technologies induce cell cycle arrest. In some embodiments, provided technologies induce G1 cell cycle arrest. In some embodiments, provided technologies increased proportion of cells in G1 phase of cell cycle. As confirmed in FIG. 3, provided technologies can inhibit proliferation of COLO320DM, which is a colorectal cell line comprising various mutations such as APC, TP53, etc., modulate WNT specific transcription such as of AXIN2 and CXCL12, and induce G1 cell cycle arrest. In some embodiments, it was confirmed that provided technologies can reduce proportion of cells in S phase of cell cycle.

DLD1 reporter = test: reporter assay (DLD1 reporter assay); type: cell-based; conditions: read-out: DLD1 4% Abs IC50
Text: Various technologies can be utilized for characterizing and/or assessing provided technologies (e.g., agents (e.g., various peptides), compositions, methods, etc.) in accordance with the present disclosure. As described herein, in some embodiments, a useful technology is or comprises fluorescence polarization. In some embodiments, a useful technology assesses LogP or LogD. In some embodiments, a useful technology is or comprises a CHI LogD assay. In some embodiments, a useful technology assesses solubility. In some embodiments, a useful technology is or comprises NanoBRET. In some embodiments, a useful technology is or comprises a reporter assay (e.g., DLD1 reporter assay). In some embodiments, a useful technology is or comprises alphascreen. Certain useful protocols are described in the Examples. Those skilled in the art appreciate that suitable adjustments may be made to such protocols, e.g., according to specific conditions, agents, purposes, etc.
as §1

beta-catenin (human) [1] = test: fluorescence polarization; bin >750 nM
beta-catenin (human) [2] = test: cell-based or functional assay
Target sequence in this assay (B6V8E6 146-665 limits assumed): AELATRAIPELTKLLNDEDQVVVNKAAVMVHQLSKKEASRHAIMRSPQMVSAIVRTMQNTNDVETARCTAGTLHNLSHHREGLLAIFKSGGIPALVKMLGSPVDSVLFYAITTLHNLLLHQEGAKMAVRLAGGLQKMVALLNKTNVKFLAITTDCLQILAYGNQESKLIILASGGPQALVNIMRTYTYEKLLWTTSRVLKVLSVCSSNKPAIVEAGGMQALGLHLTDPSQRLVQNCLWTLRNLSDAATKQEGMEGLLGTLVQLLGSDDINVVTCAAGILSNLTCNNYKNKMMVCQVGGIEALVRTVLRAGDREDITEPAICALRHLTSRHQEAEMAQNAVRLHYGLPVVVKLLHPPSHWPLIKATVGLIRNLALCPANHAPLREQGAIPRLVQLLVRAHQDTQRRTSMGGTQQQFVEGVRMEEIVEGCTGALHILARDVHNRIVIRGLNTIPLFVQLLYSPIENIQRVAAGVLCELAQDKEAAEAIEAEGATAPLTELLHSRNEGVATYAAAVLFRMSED

| Molecule | IC50 (COLO320DM cells) [nM] | IC50 (DLD1 reporter; DLD1 4%) [nM] | IC50 (beta-catenin (human) [1]) [nM] | further results |
| --- | --- | --- | --- | --- |
| CC(=O)N1CCC[C@]12CC=CCCCC1(CCCC=CCCCOC(=O)N3CC[C@@]4(C3)NC(=O)[C@H](CCCCn3cc(nn3)C[C@@H](C(=O)N[C@@H](C)C(N)=O)NC(=O)[C@H](Cc3csc5ccccc35)NC(=O)[C@H](Cc3ccsc3)NC4=O)NC(=O)[C@H](Cc3ccccc3)NC(=O)[C@H](C)NC(=O)C(C)(C)NC(=O)[C@H](Cc3cccc(C(=O)O)c3)NC(=O)[C@H](CC(=O)O)NC1=O)NC(=O)[C@H](CC(C)(C)C)NC(=O)[C@H](CC(=O)O)NC2=O (single isomer, unassigned) [I-335, Ac-PL3-Asp-Npg-B5-Asp-3COOHF-Aib-Ala-Phe-TriAzLys*3-PyrS2-3Thi-BztA-sAla*3-Ala-NH2] | ≤ 10000 |  |  | IC50 (DLD1 reporter; DLD1 reporter, 4%): ≤ 1000 nM |
| CC(=O)N1CCC[C@]12CC=CCCCC1(CCCC=CCCCOC(=O)N3CC[C@@]4(C3)NC(=O)[C@H](CCCCNC(=O)CC[C@@H](C(=O)N3CCC[C@H]3CO)NC(=O)[C@H](Cc3csc5ccccc35)NC(=O)[C@H](Cc3ccsc3)NC4=O)NC(=O)[C@H](Cc3ccccc3)NC(=O)[C@H](C)NC(=O)[C@H](C)NC(=O)[C@H](Cc3cccc(C(=O)O)c3)NC(=O)[C@H](CC(=O)O)NC1=O)NC(=O)[C@H](CC(C)(C)C)NC(=O)[C@H](CC(=O)O)NC2=O (relative stereo) [I-64, Ac-PL3-Asp-Npg-B5-Asp-3COOHF-Ala-Ala-Phe-Lys*3-PyrS2-3Thi-BztA-GlnR*3-Prool] | 10000 to 20000 | 1000 to 5000 |  |  |
| CC(=O)N1CCC[C@]12CC=CCCCC1(CCCC=CCCCOC(=O)N3CC[C@@]4(C3)NC(=O)[C@H](CCCCNC(=O)CC[C@@H](C(=O)N[C@@H](C)C(N)=O)NC(=O)[C@H](Cc3csc5ccccc35)NC(=O)[C@H](Cc3ccccc3C(F)(F)F)NC4=O)NC(=O)[C@H](Cc3ccccc3)NC(=O)[C@H](C)NC(=O)C(C)(C)NC(=O)[C@H](Cc3cccc(C(=O)O)c3)NC(=O)[C@H](CC(=O)O)NC1=O)NC(=O)[C@H](CC(C)(C)C)NC(=O)[C@H](CC(=O)O)NC2=O (single isomer, unassigned) [I-69, Ac-PL3-Asp-Npg-B5-Asp-3COOHF-Aib-Ala-Phe-Lys*3-PyrS2-2F3MeF-BztA-GlnR*3-Ala-NH2] | ≤ 10000 | ≤ 1000 |  |  |
| CCCC[C@@H]1NC(=O)[C@H](Cc2cccc(C(=O)O)c2)NC(=O)[C@H](CC(=O)O)NC(=O)C2(CCCC=CCCCOC(=O)N3CC[C@@]4(C3)NC(=O)[C@H](CCCCNC(=O)CC[C@@H](C(=O)N[C@@H](C)C(N)=O)NC(=O)[C@H](Cc3csc5ccccc35)NC(=O)[C@H](Cc3ccsc3)NC4=O)NC(=O)[C@H](Cc3ccccc3)NC(=O)[C@H](C)NC1=O)CCCC=CC[C@]1(CCCN1C(C)=O)C(=O)N[C@@H](CC(=O)O)C(=O)N[C@@H](CC(C)(C)C)C(=O)N2 (relative stereo) [I-70, Ac-PL3-Asp-Npg-B5-Asp-3COOHF-nLeu-Ala-Phe-Lys*3-PyrS2-3Thi-BztA-GlnR*3-Ala-NH2] | ≤ 10000 | ≤ 1000 |  |  |
| CC(=O)N1CCC[C@]12CC=CCCCC1(CCCC=CCCCOC(=O)N3CC[C@@]4(C3)NC(=O)[C@H](CCCCn3cc(nn3)COC[C@@H](C(=O)N[C@@H](C)C(N)=O)NC(=O)[C@H](Cc3csc5ccccc35)NC(=O)[C@H](Cc3ccsc3)NC4=O)NC(=O)[C@H](Cc3ccccc3)NC(=O)[C@H](C)NC(=O)C(C)(C)NC(=O)[C@H](Cc3cccc(C(=O)O)c3)NC(=O)[C@H](CC(=O)O)NC1=O)NC(=O)[C@H](CC(C)(C)C)NC(=O)[C@H](CC(=O)O)NC2=O (relative stereo) [I-262, Ac-PL3-Asp-Npg-B5-Asp-3COOHF-Aib-Ala-Phe-TriAzLys*3-PyrS2-3Thi-BztA-sCH2S*3-Ala-NH2] | ≤ 10000 | ≤ 1000 |  |  |
| CC(=O)N1CCC[C@]12CC=CCCCC1(CCCC=CCCCOC(=O)N3CC[C@@]4(C3)NC(=O)[C@H](CCCCNC(=O)CC[C@@H](C(=O)N[C@@H](CC(C)C)C(=O)N[C@@H](CO)C(N)=O)NC(=O)[C@H](Cc3csc5ccccc35)NC(=O)[C@H](Cc3ccccc3C(F)(F)F)NC4=O)NC(=O)[C@H](Cc3ccccc3)NC(=O)[C@H](C)NC(=O)C(C)(C)NC(=O)[C@H](Cc3cccc(C(=O)O)c3)NC(=O)[C@H](CC(=O)O)NC1=O)NC(=O)[C@H](CC(C)(C)C)NC(=O)[C@H](CC(=O)O)NC2=O (relative stereo) [I-138, Ac-PL3-Asp-Npg-B5-Asp-3COOHF-Aib-Ala-Phe-Lys*3-PyrS2-2F3MeF-BztA-GlnR*3-Leu-Ser-NH2] | ≤ 10000 | ≤ 1000 |  |  |
| B1 |  |  | < 1000 |  |
| B2 |  |  | < 1000 |  |
| B3 |  |  | < 1000 | NanoBRET Abs IC50 (beta-catenin (human) [2]): > 10000 nM |
| B4 |  |  | < 1000 |  |
| B5 |  |  | < 1000 |  |
| B6 |  |  | < 1000 |  |
